Experimental data taken from PubChem BioAssay AID328 (DTP/NCI, 2004).
Where “and” joins values, the source holds several entries; their conditions need not be identical. Equal entries are not always repeated. Inconclusive results and toxic doses are left out.

System: BDF1 mice, P388 leukemia ip, median survival T/C
Assay: NCI In Vivo Anticancer Drug Screen. Data for tumor model P388 Leukemia (intraperitoneal) in B6D2F1 (BDF1) mice
Conditions: endpoint: median survival time, higher = longer survival
How it was run: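 Mice carrying the transplantable tumour receive compound or vehicle. Survival is followed in each arm, and the treated measure is divided by the vehicle measure.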

[1] = dose: 50.0 mg/kg/injection, schedule: Q01DX009 (ip), vehicle: saline with Tween-80
[2] = dose: 100.0 mg/kg/injection, schedule: Q01DX009 (ip), vehicle: saline with Tween-80
[3] = dose: 100.0 mg/kg/injection, schedule: Q04DX003 (ip), vehicle: saline with Tween-80
[4] = dose: 200.0 mg/kg/injection, schedule: Q01DX009 (ip), vehicle: saline with Tween-80
[5] = dose: 200.0 mg/kg/injection, schedule: Q04DX003 (ip), vehicle: saline with Tween-80
[6] = dose: 400.0 mg/kg/injection, schedule: Q04DX003 (ip), vehicle: saline with Tween-80
[7] = dose: 25.0 mg/kg/injection, schedule: Q01DX009 (ip), vehicle: water
[8] = dose: 400.0 mg/kg/injection, schedule: Q01DX009 (ip), vehicle: saline with Tween-80

`COc1cccc2c1C(=O)c1c(O)c3c(c(O)c1C2=O)C[C@@](O)(C(=O)CO)C[C@@H]3OC1CC(NC(=S)Nc2ccc(F)cc2)C(O)C(C)O1` (some centres not stated) was tested, and the T/C (dose: 6.25 mg/kg/injection, schedule: Q01DX009 (ip), vehicle: saline) was 90 % of control, the T/C (dose: 25.0 mg/kg/injection, schedule: Q01DX009 (ip), vehicle: saline) was 150 % of control and the T/C (dose: 50.0 mg/kg/injection, schedule: Q01DX009 (ip), vehicle: saline) was 106 % of control. The T/C (dose: 100.0 mg/kg/injection, schedule: Q01DX009 (ip), vehicle: saline) was 122 % of control.
For `CC(C)(C)OC(=O)NC(CCC(=O)O)(Cc1ccccc1)C(=O)NC(CCC(=O)O)(Cc1ccccc1)C(=O)OCc1ccccc1` (configuration not stated), the T/C (dose: 200.0 mg/kg/injection, schedule: Q01DX005 (ip), vehicle: saline with Tween-80) was 90 % of control.
For `COC(=O)C[C@](O)(CCC(C)C)C(=O)O[C@@H]1C(OC)=C[C@]23CCCN2CCc2cc4c(cc2[C@H]13)OCO4`, the T/C (dose: 0.06 mg/kg/injection, schedule: Q01DX010 (ip), vehicle: saline) was 118 % of control, the T/C (dose: 0.13 mg/kg/injection, schedule: Q01DX010 (ip), vehicle: saline) was 109 % of control and the T/C (dose: 0.25 mg/kg/injection, schedule: Q01DX010 (ip), vehicle: saline) was 118 % of control. The T/C (dose: 1.0 mg/kg/injection, schedule: Q01DX010 (ip), vehicle: saline) was 155 % of control and the T/C (dose: 2.0 mg/kg/injection, schedule: Q01DX010 (ip), vehicle: saline) was 180 % of control.
`CC(C)(C)NC1=NCCO1` was tested, and the T/C (dose: 25.0 mg/kg/injection, schedule: Q01DX009 (ip), vehicle: saline with Tween-80) was 100 % of control, the T/C [1] was 100 % of control and the T/C [2] was 100 % of control.
In the case of `COC1CC(OS(=O)(=O)c2ccc(C)cc2)C(O)C(C)O1` (configuration not stated), the T/C [1] is reported as 98 % of control and 97 % of control, the T/C [2] is reported as 100 % of control and 109 % of control and the T/C [3] is reported as 99 % of control. The T/C [4] was 96 % of control and 103 % of control, the T/C [5] was 97 % of control and the T/C [6] was 96 % of control.
`CS(=O)CC(O)(c1ccccc1)c1cccnc1` (configuration not stated) was tested, and the T/C [1] was 103 % of control, the T/C [2] was 92 % of control and the T/C [4] was 107 % of control.
With `CCC1CC2CC(c3cc4c(cc3OC)N(C)C3C(O)(C(=O)OC)C(OC(C)=O)C5(CC)C=CCN6CCC43C65)c3[nH]c4ccccc4c3CCN(C1)C2` (configuration not stated) the T/C (dose: 0.03 mg/kg/injection, schedule: Q01DX009 (ip), vehicle: water) was 181 % of control, the T/C (dose: 0.06 mg/kg/injection, schedule: Q01DX009 (ip), vehicle: water) was 100 % of control and the T/C (dose: 0.12 mg/kg/injection, schedule: Q01DX009 (ip), vehicle: water) was 100 % of control. For the same compound, the T/C (dose: 0.25 mg/kg/injection, schedule: Q01DX009 (ip), vehicle: water) was 90 % of control and 95 % of control, the T/C (dose: 0.25 mg/kg/injection, schedule: Q04DX003 (ip), vehicle: water) was 90 % of control and the T/C (dose: 0.5 mg/kg/injection, schedule: Q01DX009 (ip), vehicle: water) was 100 % of control and 104 % of control. For the same compound, the T/C (dose: 0.5 mg/kg/injection, schedule: Q04DX003 (ip), vehicle: water) was 95 % of control, the T/C (dose: 1.0 mg/kg/injection, schedule: Q01DX009 (ip), vehicle: water) was 109 % of control and the T/C (dose: 1.0 mg/kg/injection, schedule: Q04DX003 (ip), vehicle: water) was 95 % of control. The T/C (dose: 2.0 mg/kg/injection, schedule: Q01DX009 (ip), vehicle: water) was 104 % of control, the T/C (dose: 4.0 mg/kg/injection, schedule: Q04DX003 (ip), vehicle: water) was 95 % of control and the T/C (dose: 6.0 mg/kg/injection, schedule: Q04DX003 (ip), vehicle: water) was 90 % of control. The T/C (dose: 5.0 micrograms/kg/injection, schedule: Q01DX009 (ip), vehicle: water) was 104 % of control, the T/C (dose: 10.0 micrograms/kg/injection, schedule: Q01DX009 (ip), vehicle: water) was 102 % of control and the T/C (dose: 20.0 micrograms/kg/injection, schedule: Q01DX009 (ip), vehicle: water) was 90 % of control. The T/C (dose: 40.0 micrograms/kg/injection, schedule: Q01DX009 (ip), vehicle: water) was 100 % of control and the T/C (dose: 80.0 micrograms/kg/injection, schedule: Q01DX009 (ip), vehicle: water) was 92 % of control.
For `O=C1CCC2(CCCC2)c2ccccc21`, the T/C [7] was 95 % of control, the T/C (dose: 50.0 mg/kg/injection, schedule: Q01DX009 (ip), vehicle: water) was 97 % of control and the T/C (dose: 100.0 mg/kg/injection, schedule: Q01DX009 (ip), vehicle: water) was 106 % of control. The T/C (dose: 200.0 mg/kg/injection, schedule: Q01DX009 (ip), vehicle: water) was 103 % of control and the T/C (dose: 400.0 mg/kg/injection, schedule: Q01DX009 (ip), vehicle: water) was 106 % of control.
With `CCOC(=O)C(=CN1CCOCC1)C(=O)OCC` the T/C [3] was 100 % of control, the T/C [5] was 100 % of control and the T/C [6] was 109 % of control.
With `CCSC(CC(C)=O)c1ccc(Cl)c(Cl)c1` (configuration not stated) the T/C [1] was 104 % of control, the T/C [2] was 107 % of control and the T/C [4] was 118 % of control.
`OCCCN1CCCCC1CO` (configuration not stated) was tested, and the T/C (dose: 200.0 mg/kg/injection, schedule: Q01DX009 (ip), vehicle: saline) was 165 % of control.
With `COc1cc2ccc3c(c2cc1OC)N(C)C(OC)c1cc2c(cc1-3)OCO2` (configuration not stated) the T/C (dose: 20.0 mg/kg/injection, schedule: Q01DX009 (ip), vehicle: water) was 104 % of control and the T/C (dose: 240.0 mg/kg/injection, schedule: Q01DX009 (ip), vehicle: water) was 95 % of control.
With `CCOC(=O)COc1ccc(/C=C(\C)[N+](=O)[O-])c2ccccc12` the T/C [1] was 112 % of control and 123 % of control, the T/C [2] was 112 % of control and the T/C [4] was 122 % of control. For the same compound, the T/C [8] was 106 % of control.
`CCCCCCCCCCCCN(CCC(=O)O)S(=O)(=O)O` was tested, and the T/C (dose: 25.0 mg/kg/injection, schedule: Q01DX009 (ip), vehicle: Klucel (hydroxypropylcellulose) (HPC)) was 95 % of control, the T/C (dose: 50.0 mg/kg/injection, schedule: Q01DX009 (ip), vehicle: Klucel (hydroxypropylcellulose) (HPC)) was 104 % of control and the T/C (dose: 75.0 mg/kg/injection, schedule: Q04DX003 (ip), vehicle: Klucel (hydroxypropylcellulose) (HPC)) was 100 % of control. The T/C (dose: 100.0 mg/kg/injection, schedule: Q01DX009 (ip), vehicle: Klucel (hydroxypropylcellulose) (HPC)) was 90 % of control and the T/C (dose: 150.0 mg/kg/injection, schedule: Q04DX003 (ip), vehicle: Klucel (hydroxypropylcellulose) (HPC)) was 100 % of control.
In the case of `NC(=O)CC(NC(=O)OCc1ccccc1)C(=O)OCc1ccccc1` (configuration not stated), the T/C [1] is reported as 109 % of control, the T/C [2] is reported as 100 % of control and the T/C [3] is reported as 99 % of control. The T/C [4] was 93 % of control, the T/C [5] was 102 % of control and the T/C [8] was 103 % of control. For the same compound, the T/C [6] was 90 % of control.
`COc1cccc2c1C(=O)c1c(O)c3c(c(O)c1C2=O)C[C@@](O)(/C(C)=N\O)C[C@@H]3OC1CC(N)C(O)C(C)O1` (some centres not stated) was tested, and the T/C (dose: 1.56 mg/kg/injection, schedule: Q01DX009 (ip), vehicle: water) was 112 % of control, the T/C (dose: 3.12 mg/kg/injection, schedule: Q01DX009 (ip), vehicle: water) was 105 % of control and the T/C (dose: 6.25 mg/kg/injection, schedule: Q01DX009 (ip), vehicle: water) was 161 % of control. For the same compound, the T/C (dose: 12.5 mg/kg/injection, schedule: Q01DX009 (ip), vehicle: water) was 210 % of control and the T/C [7] was 103 % of control.
`C/C=C/C(=O)OC1CC(=O)N(C)c2cc(cc(OC)c2Cl)C/C(C)=C/C=CC(OC)C2(O)CC(OC(=O)N2)C(C)C2OC12C` (configuration not stated) was tested, and the T/C (dose: 0.8 micrograms/kg/injection, schedule: Q01DX009 (ip), vehicle: saline + alcohol) was 150 % of control, the T/C (dose: 1.5 micrograms/kg/injection, schedule: Q01DX009 (ip), vehicle: saline + alcohol) was 150 % of control and the T/C (dose: 3.1 micrograms/kg/injection, schedule: Q01DX009 (ip), vehicle: saline + alcohol) was 150 % of control. For the same compound, the T/C (dose: 6.2 micrograms/kg/injection, schedule: Q01DX009 (ip), vehicle: saline + alcohol) was 160 % of control, the T/C (dose: 12.5 micrograms/kg/injection, schedule: Q01DX009 (ip), vehicle: saline + alcohol) was 170 % of control and the T/C (dose: 25.0 micrograms/kg/injection, schedule: Q01DX009 (ip), vehicle: saline + alcohol) was 173 % of control. For the same compound, the T/C (dose: 50.0 micrograms/kg/injection, schedule: Q01DX009 (ip), vehicle: saline + alcohol) was 210 % of control, the T/C (dose: 100.0 micrograms/kg/injection, schedule: Q01DX009 (ip), vehicle: saline + alcohol) was 210 % of control and the T/C (dose: 200.0 micrograms/kg/injection, schedule: Q01DX009 (ip), vehicle: saline + alcohol) was 210 % of control.
With `CCNS(=O)(=O)c1ncnc2nc[nH]c12` the T/C [2] was 100 % of control, the T/C [3] was 104 % of control and the T/C [4] was 100 % of control. For the same compound, the T/C [5] was 100 % of control, the T/C [8] was 100 % of control and the T/C [6] was 100 % of control.
`CCOc1ccc(Br)cc1/C=C1\N=C(c2ccccc2)OC1=O` was tested, and the T/C (dose: 100.0 mg/kg/injection, schedule: Q04DX003 (ip), vehicle: Klucel (hydroxypropylcellulose) (HPC)) was 95 % of control, the T/C (dose: 200.0 mg/kg/injection, schedule: Q04DX003 (ip), vehicle: Klucel (hydroxypropylcellulose) (HPC)) was 100 % of control and the T/C (dose: 400.0 mg/kg/injection, schedule: Q04DX003 (ip), vehicle: Klucel (hydroxypropylcellulose) (HPC)) was 95 % of control.
